The values below come from ChEMBL document CHEMBL3832051, “DailyMed|setid=970a767a-7a65-4cdf-84fe-4dbe0a77b80a | METRONIDAZOLE - metronidazole lotion|Physicians Total Care, Inc”.

This data set in a line: Evaluation of pharmacokinetic parameters for metronidazole following topical administration of 7.5 mg of metronidazole (1 g metronidazole topical lotion) for 4 days to the faces of 8 patients. It is filed as ADME, organism-based. Also on record: dose 7.5 mg, route topical. Particulars: human, in vivo, topical or ocular, dosed compound id 31, dosed compound name METRONIDAZOLE, gender male and female, regimen Twice daily, study dosing duration 4 days, tissue Plasma.

In turn, `Cc1ncc([N+](=O)[O-])n1CCO` [METRONIDAZOLE] yielded a peak concentration (Cmax) (sampling time1 5 days) of 96 ng/mL. In addition, under “read-out: AUC(0-24)”, the AUC at 96 h is 962 ng·h/mL.
